We go through one molecule from PMC4620497 (Scientific Reports, 2015).

For test [1], the target named is T1, MAP3K1 (Homo sapiens, UniProt Q13233).
T1 construct: purchased DiscoveRx KINOMEscan (Ambit Biosciences)
Briefly: KINOMEscan panel screen. The format is binding. The settings on record: read-out: Percent Control(%).

Test [2] concerns the target T2, CAMK4 (Homo sapiens, UniProt Q16566).
T2 construct: purchased DiscoveRx KINOMEscan (Ambit Biosciences)
T2 sequence (Q16566 1-473): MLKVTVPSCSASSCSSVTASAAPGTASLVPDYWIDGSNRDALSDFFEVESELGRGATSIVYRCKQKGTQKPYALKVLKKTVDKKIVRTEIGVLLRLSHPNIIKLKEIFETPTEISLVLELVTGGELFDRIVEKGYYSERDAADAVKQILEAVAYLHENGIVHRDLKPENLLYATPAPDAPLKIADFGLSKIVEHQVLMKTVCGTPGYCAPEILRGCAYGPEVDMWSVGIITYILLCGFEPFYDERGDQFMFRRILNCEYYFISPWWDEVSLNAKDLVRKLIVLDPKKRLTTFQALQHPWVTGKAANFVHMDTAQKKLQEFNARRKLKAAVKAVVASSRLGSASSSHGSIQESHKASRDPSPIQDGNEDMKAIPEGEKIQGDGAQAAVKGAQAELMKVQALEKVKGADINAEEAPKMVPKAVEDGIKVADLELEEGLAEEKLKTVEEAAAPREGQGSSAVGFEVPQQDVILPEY
Briefly: KINOMEscan kinase binding assay (Kd). The settings on record: Table S1. The text has this:
(§1) In vitro KINOMEscan kinase binding assays (Ambit Biosciences) were employed to determine the binding affinity (Kd) of compounds[41][42].
(§2) compound 1. The y have very similar spectrum of activity in enz ymatic and cellular
(§3) levels. Both of them have the ability to inhibit Wnt/β -catenin si gnalin g. However, in […]

For test [3], the target named is PAK1 (Homo sapiens, UniProt Q13153). Briefly: KINOMEscan kinase binding assay (Kd). The settings on record: Table S1.
Description: as §1, §2, §3

The target in test [4] is T3, DLK (Homo sapiens, UniProt Q12852).
T3 sequence (Q12852 1-859): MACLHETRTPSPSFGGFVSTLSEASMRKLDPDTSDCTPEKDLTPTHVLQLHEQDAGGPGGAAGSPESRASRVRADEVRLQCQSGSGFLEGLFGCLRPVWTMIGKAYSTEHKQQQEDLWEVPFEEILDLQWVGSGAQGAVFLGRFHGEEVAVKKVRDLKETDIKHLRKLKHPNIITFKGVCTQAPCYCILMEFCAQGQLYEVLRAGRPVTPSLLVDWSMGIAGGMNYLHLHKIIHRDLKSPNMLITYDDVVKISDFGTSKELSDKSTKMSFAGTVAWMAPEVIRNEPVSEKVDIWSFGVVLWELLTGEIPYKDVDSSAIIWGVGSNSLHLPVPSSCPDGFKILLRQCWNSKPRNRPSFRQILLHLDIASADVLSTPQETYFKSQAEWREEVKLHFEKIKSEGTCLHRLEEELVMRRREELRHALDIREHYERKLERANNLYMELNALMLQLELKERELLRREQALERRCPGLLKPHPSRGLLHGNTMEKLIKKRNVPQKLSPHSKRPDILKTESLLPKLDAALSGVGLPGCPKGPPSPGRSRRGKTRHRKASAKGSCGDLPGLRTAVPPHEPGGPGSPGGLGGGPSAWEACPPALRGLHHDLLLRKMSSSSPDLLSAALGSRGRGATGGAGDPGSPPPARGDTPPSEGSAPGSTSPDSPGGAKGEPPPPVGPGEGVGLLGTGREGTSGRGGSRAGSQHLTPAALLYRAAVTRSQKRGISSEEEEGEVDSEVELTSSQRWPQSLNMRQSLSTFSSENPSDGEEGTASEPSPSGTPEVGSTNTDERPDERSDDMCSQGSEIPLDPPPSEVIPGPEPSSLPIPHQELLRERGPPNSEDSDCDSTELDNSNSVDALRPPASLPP
Briefly: KINOMEscan kinase binding assay (Kd). The settings on record: Table S1.
Description: as §1, §2, §3

For test [5], the target named is T4, ERBB4 (Homo sapiens, UniProt Q15303).
T4 construct: purchased DiscoveRx KINOMEscan (Ambit Biosciences)
Briefly: KINOMEscan kinase binding assay (Kd). The settings on record: Table S1.
Description: as §1, §2, §3

For test [6], the target named is T5, CHEK1 (Homo sapiens, UniProt O14757).
T5 construct: purchased DiscoveRx KINOMEscan (Ambit Biosciences)
T5 sequence (O14757 1-476): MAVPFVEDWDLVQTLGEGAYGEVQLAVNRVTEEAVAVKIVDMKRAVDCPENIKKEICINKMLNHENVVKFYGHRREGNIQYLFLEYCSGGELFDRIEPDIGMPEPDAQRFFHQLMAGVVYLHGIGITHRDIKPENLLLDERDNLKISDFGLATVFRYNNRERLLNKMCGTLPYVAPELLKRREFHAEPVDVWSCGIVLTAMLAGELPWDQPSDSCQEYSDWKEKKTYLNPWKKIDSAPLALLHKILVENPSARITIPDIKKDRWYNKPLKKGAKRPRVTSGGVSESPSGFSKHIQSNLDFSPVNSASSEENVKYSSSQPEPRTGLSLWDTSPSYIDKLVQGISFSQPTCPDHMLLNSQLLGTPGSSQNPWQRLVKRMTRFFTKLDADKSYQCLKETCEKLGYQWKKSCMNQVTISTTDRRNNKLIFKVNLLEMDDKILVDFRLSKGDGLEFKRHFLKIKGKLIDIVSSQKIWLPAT
Nature of the test: KINOMEscan kinase binding assay (Kd). The settings on record: Table S1.
Description: as §1, §2, §3

The target in test [7] is T6, PAK2 (Homo sapiens, UniProt Q13177).
T6 construct: purchased DiscoveRx KINOMEscan (Ambit Biosciences)
T6 sequence (Q13177 whole entry): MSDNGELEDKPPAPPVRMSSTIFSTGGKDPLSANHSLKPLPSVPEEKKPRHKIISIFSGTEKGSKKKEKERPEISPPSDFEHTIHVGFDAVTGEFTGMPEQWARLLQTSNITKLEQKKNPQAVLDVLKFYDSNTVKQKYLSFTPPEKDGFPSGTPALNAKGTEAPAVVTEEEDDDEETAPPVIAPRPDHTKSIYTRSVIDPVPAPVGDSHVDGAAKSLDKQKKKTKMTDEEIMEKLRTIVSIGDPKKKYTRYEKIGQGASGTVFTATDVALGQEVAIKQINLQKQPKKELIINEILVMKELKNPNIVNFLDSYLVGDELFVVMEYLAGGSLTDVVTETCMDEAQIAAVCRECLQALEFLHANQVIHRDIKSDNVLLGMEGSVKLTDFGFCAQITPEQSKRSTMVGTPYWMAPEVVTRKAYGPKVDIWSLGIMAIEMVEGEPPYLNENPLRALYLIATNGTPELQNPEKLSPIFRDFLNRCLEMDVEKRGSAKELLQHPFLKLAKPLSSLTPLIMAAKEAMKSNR
Nature of the test: KINOMEscan kinase binding assay (Kd). The settings on record: Table S1.
Description: as §1, §2, §3

The target of test [8] is ERN1 (Homo sapiens, UniProt O75460). Briefly: KINOMEscan kinase binding assay (Kd). The settings on record: Table S1.
Description: as §1, §2, §3

In test [9] the target is ERK. Nature of the test: KINOMEscan kinase binding assay (Kd). The settings on record: Table S1.
Description: as §1, §2, §3

Test [10] deals with T7, IGF1R (Homo sapiens, UniProt P08069).
T7 construct: DNA tag (qPCR read-out); purchased Ambit Biosciences (KINOMEscan service)
T7 sequence (P08069 31-1367): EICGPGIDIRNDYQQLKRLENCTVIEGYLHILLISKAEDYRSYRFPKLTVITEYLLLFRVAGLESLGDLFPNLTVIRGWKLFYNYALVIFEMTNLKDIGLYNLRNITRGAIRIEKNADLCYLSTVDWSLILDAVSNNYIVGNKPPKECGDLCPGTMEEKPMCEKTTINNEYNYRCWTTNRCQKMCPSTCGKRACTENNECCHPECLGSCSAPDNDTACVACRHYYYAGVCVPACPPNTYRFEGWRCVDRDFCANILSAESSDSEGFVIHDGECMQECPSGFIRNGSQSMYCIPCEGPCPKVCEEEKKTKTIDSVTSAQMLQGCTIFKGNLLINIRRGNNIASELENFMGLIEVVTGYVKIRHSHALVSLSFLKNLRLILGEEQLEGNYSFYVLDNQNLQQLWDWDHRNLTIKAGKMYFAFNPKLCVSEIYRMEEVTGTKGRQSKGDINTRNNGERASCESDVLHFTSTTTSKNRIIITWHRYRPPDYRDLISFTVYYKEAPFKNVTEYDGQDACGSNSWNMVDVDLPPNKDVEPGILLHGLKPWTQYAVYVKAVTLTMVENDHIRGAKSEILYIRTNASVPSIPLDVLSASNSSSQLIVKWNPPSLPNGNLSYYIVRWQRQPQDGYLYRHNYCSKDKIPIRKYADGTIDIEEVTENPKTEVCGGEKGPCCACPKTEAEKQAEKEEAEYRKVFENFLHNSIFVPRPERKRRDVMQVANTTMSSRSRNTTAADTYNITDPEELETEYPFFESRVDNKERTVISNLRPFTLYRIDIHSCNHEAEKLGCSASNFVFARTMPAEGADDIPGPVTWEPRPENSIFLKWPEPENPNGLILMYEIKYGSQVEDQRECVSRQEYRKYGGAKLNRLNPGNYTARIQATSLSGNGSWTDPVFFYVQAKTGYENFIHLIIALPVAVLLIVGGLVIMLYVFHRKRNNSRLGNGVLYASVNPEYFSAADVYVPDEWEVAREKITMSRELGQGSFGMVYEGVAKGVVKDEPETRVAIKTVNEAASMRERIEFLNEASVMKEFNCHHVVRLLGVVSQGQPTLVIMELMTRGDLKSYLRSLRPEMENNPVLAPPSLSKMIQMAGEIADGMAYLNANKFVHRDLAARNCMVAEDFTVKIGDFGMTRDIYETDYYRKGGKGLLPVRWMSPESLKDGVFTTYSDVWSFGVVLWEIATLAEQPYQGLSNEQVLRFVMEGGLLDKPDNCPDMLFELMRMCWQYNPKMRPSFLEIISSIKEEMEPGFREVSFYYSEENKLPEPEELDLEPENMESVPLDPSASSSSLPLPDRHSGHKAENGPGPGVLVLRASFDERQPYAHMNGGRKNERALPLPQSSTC
Briefly: KINOMEscan kinase binding assay (Kd). The settings on record: Table S1.
Description: as §1, §2, §3

In test [11] the target is T8, SRPK2 (Homo sapiens, UniProt P78362).
T8 construct: purchased DiscoveRx KINOMEscan (Ambit Biosciences)
T8 sequence (P78362 whole entry): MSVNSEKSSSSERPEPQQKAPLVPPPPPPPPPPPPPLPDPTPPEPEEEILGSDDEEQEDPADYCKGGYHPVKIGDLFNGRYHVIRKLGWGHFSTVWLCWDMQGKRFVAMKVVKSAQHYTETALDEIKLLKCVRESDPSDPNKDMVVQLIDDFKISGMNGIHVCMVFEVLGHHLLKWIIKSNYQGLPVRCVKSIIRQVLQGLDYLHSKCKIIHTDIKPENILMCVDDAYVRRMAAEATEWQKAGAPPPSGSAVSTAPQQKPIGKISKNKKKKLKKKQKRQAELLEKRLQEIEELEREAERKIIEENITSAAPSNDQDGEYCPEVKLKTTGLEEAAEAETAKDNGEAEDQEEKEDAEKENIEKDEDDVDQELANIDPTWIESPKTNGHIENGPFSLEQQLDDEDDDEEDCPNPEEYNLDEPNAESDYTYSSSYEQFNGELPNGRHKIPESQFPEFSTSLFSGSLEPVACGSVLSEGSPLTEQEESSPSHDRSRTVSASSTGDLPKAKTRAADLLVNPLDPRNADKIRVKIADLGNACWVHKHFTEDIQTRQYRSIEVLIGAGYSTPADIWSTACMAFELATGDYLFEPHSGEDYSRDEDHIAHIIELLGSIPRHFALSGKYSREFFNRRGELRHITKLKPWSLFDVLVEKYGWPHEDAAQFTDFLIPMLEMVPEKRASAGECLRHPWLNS
Briefly: KINOMEscan panel screen. It is filed as binding. The settings on record: read-out: Percent Control(%).

Test [12] concerns the target T9, ACVRL1 (Homo sapiens, UniProt P37023).
T9 construct: purchased DiscoveRx KINOMEscan (Ambit Biosciences)
Briefly: KINOMEscan panel screen. The format is binding. The settings on record: read-out: Percent Control(%).

Test [13] deals with T10, MKK7 (Homo sapiens, UniProt O14733).
T10 construct: purchased DiscoveRx KINOMEscan (Ambit Biosciences)
T10 sequence (O14733 whole entry): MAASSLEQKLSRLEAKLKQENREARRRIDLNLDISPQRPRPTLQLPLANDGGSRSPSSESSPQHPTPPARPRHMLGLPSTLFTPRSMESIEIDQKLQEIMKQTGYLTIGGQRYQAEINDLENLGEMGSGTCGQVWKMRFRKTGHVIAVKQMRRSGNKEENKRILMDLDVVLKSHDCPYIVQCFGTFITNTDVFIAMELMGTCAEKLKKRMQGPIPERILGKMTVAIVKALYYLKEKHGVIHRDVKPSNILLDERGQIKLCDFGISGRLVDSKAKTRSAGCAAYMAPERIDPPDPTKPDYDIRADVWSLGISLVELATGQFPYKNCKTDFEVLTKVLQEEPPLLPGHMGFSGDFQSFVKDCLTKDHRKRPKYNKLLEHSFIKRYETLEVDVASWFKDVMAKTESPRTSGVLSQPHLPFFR
Briefly: KINOMEscan panel screen. It is filed as binding. The settings on record: read-out: Percent Control(%).

Test [14] concerns the target T11, PDPK1 (Homo sapiens, UniProt O15530).
T11 construct: purchased DiscoveRx KINOMEscan (Ambit Biosciences)
Nature of the test: KINOMEscan panel screen. It is filed as binding. The settings on record: read-out: Percent Control(%).

Molecules are shown by their SMILES.

T9 sequence (P37023 22-503): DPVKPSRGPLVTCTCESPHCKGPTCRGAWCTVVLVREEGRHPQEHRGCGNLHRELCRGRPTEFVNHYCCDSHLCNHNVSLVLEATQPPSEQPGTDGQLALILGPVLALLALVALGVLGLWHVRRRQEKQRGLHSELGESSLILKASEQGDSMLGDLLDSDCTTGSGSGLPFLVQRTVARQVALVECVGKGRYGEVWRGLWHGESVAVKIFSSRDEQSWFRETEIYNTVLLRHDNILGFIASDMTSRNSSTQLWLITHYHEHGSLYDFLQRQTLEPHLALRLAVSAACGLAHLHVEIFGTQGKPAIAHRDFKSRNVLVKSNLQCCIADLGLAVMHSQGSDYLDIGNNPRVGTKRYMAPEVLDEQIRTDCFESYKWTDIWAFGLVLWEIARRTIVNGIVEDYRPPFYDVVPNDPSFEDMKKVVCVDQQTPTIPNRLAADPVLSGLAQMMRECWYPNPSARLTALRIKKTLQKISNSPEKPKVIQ
T1 sequence (Q13233 whole entry): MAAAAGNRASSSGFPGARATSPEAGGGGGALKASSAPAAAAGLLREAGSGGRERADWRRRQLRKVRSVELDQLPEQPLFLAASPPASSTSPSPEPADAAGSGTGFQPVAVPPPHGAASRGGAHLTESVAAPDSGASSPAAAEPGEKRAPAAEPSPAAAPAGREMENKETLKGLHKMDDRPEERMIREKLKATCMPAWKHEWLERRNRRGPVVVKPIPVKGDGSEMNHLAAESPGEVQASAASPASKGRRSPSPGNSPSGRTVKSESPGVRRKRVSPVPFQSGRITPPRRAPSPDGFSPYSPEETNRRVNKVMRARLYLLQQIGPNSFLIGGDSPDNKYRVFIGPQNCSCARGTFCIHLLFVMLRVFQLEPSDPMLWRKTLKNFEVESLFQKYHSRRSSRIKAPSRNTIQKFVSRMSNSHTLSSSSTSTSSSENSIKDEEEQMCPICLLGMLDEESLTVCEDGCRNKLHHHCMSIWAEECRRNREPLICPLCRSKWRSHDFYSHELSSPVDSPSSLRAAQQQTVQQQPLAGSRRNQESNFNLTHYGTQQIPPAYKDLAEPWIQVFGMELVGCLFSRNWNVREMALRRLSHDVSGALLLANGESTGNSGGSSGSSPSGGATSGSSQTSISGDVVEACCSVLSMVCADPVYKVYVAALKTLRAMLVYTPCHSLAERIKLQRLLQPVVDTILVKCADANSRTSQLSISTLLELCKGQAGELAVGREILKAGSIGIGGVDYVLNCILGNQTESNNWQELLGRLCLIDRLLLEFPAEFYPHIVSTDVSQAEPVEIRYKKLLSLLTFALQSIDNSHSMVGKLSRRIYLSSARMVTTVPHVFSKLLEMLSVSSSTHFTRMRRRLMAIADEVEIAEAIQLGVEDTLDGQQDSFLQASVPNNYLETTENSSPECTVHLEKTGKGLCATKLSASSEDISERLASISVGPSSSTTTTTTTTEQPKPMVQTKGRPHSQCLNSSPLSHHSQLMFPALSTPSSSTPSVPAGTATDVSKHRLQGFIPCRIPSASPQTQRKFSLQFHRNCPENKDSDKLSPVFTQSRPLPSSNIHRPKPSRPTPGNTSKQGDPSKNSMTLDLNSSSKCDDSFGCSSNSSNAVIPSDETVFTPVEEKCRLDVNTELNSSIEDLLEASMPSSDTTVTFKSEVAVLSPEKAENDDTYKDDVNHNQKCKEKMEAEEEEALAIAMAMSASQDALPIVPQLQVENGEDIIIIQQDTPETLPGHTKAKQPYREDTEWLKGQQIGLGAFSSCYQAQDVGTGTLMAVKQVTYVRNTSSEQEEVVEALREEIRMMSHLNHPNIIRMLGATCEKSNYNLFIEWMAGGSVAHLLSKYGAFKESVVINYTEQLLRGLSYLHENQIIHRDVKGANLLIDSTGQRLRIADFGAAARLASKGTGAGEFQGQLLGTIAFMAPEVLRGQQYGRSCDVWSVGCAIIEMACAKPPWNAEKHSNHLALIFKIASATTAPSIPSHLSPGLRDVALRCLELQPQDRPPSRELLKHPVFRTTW

The Kd is the concentration at which binding is half-saturated. A high value points to lower affinity. As to `CC(C)(C)c1cc(NC(=O)Nc2ccc(Oc3ncnc4[nH]ncc34)c(F)c2)no1` [SKLB-677, 1-(4-(1H-pyrazolo[3,4-d]pyrimidin-4-yloxy)-3-fluorophenyl)-3-(5-tert-butylisoxazol-3-yl)urea], the remaining binding at 10 µM in test [1] was 36%; in test [11], 100%; in test [12], 91%; in [13], 77%; in test [14], 100%. Moreover, the dissociation constant (Kd) in [2], in test [3], in test [4], in [5], in test [6] and in test [7] was greater than 10 µM throughout. Besides, the Kd in test [8], in test [9] and in test [10] was greater than 10 µM each time.
